Measurements taken from ChEMBL document CHEMBL1201862, “PubChem BioAssay data set” (2004).
The source made the active and inactive calls.

Columns and labels:
[1] = biological target: T1, Calpain-2 catalytic subunit (Sus scrofa, UniProt P43367); test: m-calpain protease blockers, concentration series – biochemical, fluorogenic peptide substrate, dose response (AID 1420); format: functional
T1 sequence (P43367 whole entry): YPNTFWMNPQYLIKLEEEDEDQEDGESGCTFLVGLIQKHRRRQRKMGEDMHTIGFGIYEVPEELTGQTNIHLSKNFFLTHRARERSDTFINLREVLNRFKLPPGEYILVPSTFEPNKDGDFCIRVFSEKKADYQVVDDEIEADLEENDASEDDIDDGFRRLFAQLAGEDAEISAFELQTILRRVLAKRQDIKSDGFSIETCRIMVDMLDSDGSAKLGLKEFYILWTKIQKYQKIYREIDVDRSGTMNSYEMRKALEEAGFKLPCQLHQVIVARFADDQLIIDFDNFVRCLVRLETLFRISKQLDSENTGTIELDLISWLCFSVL

[2] = biological target: Cytochrome P450 2C19 (Homo sapiens, UniProt P33261); test: Cytochrome panel assay with activity outcomes. Panel member name: p450-cyp2c19 Compounds with AC50 equal or less than 10 uM are considered active; format: functional; conditions: read-out: AC50
[3] = biological target: Cytochrome P450 2C9 (Homo sapiens, UniProt P11712)
[4] = biological target: Paired box protein Pax-8 (Homo sapiens, UniProt Q06710); test: PAX8 transcriptional activity inhibition in RMG-I – RMG-I cells, luciferase, cherry-pick, dose response (AID 687027); format: functional, cell-based;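 note: luciferase reporter driven by Pax8 target thyroperoxidase promoter measured by SteadyGlo luminescence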
[5] = system: Streptococcus sp. 'group A'; test: Streptococcus pyogenes SK(-)GAS viability under kanamycin – luminescence, BacTiterGlo, confirmation, counter-screen for streptokinase expression inhibitor project, dose response (AID 1900); format: functional, organism-based
[6] = biological target: T2, Streptokinase A (Streptococcus pyogenes serotype M1, UniProt P10520); test: viability-normalized secreted streptokinase activity reduction – plasminogen activation absorbance, OD405, dose response (AID 1914); format: functional, Streptococcus pyogenes M1 GAS;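 note: secreted streptokinase activity via plasminogen activation per viability signal from cell pellet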
T2 sequence (P10520 whole entry): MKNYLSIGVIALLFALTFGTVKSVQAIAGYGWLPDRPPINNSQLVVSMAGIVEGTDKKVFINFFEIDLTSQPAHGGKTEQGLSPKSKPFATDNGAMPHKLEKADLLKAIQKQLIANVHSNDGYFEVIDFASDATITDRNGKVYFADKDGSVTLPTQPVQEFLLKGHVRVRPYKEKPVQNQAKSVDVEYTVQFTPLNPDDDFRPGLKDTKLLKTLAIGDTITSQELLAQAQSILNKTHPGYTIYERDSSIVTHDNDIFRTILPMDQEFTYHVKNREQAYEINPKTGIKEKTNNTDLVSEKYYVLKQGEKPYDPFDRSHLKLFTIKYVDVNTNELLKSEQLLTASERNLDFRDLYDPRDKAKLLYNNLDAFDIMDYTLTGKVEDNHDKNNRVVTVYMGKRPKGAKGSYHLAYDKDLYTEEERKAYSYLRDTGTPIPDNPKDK

[7] = system: Streptococcus; test: GAS UMAA2166 growth inhibition – luminescence, BacTiterGlo, counter-screen for streptokinase expression inhibitor project, dose response (AID 1915); format: functional, organism-based;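 note: potency for reduction of bacterial viability or growth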
[8] = THP-1 cell cytotoxicity, dose response, cytotoxicity control for non-replicating M. tuberculosis project (AID 489025); format: functional
[9] = cells; format: functional
[10] = biological target: T3, Corticotropin-releasing factor receptor 2/Corticotropin-releasing factor-binding protein (Homo sapiens, UniProt P24387+Q13324); test: Dose Response confirmation of uHTS hits for small molecule antagonists of the CRF-binding protein and CRF-R2 receptor complex.; format: functional; conditions: read-out: IC50_Mean
T3 sequence (Q13324 whole entry): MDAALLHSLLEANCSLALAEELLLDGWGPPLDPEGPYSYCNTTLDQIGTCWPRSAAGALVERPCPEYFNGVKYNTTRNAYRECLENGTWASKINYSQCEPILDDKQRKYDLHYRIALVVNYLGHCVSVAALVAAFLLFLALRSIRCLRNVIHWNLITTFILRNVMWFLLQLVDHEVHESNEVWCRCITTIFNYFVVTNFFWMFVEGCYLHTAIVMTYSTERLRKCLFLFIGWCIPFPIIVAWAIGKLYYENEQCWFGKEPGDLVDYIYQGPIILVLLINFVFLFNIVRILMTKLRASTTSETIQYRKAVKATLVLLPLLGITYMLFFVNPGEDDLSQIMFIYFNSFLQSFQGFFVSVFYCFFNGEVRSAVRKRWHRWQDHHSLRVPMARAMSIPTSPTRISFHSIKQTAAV
T3 sequence (P24387 whole entry): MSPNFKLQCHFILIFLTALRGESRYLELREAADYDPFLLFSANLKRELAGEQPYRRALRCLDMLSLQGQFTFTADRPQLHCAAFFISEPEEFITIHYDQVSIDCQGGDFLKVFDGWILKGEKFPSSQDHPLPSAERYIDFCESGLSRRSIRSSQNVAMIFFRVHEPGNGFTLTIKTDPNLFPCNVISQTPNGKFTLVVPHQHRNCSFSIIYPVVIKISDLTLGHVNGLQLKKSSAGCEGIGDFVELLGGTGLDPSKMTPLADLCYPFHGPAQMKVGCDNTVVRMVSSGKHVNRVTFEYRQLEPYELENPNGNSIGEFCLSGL

[11] = biological target: T3, Corticotropin-releasing factor receptor 2/Corticotropin-releasing factor-binding protein; test: activators of CRF receptor 2 with binding protein – uHTS hits, confirmation (AID 602473); format: functional; conditions: read-out: EC50_Mean
[12] = biological target: T4, Fatty acid synthase (Homo sapiens, UniProt P49327); test: inhibition of human FAS-TE enzyme activity – biochemical, endpoint fluorescence intensity, uHTS hits, dose response (AID 624327); format: functional;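 note: fluorescence from hydrolysis of an O-methyl fluorescein acyl ester substrate by the enzyme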
[13] = biological target: T4, Fatty acid synthase; test: inhibition of human FAS-TE enzyme activity – biochemical, kinetic fluorescence intensity, dose response (AID 624326); format: functional;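 note: rate of fluorescence rise from hydrolysis of a fluorogenic O-methyl fluorescein ester substrate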
[14] = biological target: Cytochrome P450 3A4 (Homo sapiens, UniProt P08684);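 note: CYP3A4 tested as one member of a cytochrome P450 panel screen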
[15] = biological target: T5, Protein skinhead-1 (Caenorhabditis elegans, UniProt P34707); format: functional
T5 sequence (P34707 whole entry): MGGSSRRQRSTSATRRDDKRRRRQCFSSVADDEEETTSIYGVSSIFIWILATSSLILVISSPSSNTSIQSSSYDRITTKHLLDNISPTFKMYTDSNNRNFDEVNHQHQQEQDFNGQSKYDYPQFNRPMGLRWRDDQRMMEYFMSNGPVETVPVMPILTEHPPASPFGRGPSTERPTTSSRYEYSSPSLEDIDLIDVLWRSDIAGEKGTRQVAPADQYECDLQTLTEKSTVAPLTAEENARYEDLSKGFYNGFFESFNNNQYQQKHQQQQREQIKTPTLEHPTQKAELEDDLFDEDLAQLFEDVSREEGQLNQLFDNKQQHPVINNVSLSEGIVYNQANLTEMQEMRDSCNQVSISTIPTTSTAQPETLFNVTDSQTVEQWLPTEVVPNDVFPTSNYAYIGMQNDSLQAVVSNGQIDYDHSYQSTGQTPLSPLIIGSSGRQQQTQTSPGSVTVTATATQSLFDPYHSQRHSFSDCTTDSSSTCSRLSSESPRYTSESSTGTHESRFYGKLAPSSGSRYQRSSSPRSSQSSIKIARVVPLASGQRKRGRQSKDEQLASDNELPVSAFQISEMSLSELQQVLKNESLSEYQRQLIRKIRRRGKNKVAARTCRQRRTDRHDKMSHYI

[16] = biological target: T6, Heat shock factor protein 1 (Mus musculus, UniProt P38532); test: enhancement of HSF1-driven luciferase signal – cell-based, NIH3T3, luminescence, dose retest, confirmation (AID 435004); format: functional;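 note: stress induced by proteasome inhibitor MG132 added 30 min after compound; luciferase reporter driven by HSF1 response element in NIH3T3 cells; actives raise luminescence as potentiators of the MG132 stress response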
T6 sequence (P38532 whole entry): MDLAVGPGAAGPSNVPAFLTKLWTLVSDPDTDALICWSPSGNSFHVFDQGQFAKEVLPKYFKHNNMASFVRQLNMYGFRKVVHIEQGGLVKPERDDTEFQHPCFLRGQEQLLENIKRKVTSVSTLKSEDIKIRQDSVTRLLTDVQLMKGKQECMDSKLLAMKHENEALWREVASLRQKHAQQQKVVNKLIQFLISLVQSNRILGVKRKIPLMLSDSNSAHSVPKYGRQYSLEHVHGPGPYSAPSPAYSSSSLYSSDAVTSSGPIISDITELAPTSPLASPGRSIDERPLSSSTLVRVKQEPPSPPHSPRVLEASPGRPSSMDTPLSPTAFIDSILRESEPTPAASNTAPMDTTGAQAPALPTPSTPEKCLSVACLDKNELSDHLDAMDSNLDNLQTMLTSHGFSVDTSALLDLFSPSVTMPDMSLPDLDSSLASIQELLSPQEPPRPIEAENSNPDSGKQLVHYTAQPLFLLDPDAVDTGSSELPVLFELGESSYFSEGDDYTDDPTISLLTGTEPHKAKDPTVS

[17] = biological target: T7, Cytochrome P450 1A2 (Homo sapiens, UniProt P05177);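 note: PubChem cytochrome P450 panel assay, CYP1A2 panel member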
T7 sequence (P05177 whole entry): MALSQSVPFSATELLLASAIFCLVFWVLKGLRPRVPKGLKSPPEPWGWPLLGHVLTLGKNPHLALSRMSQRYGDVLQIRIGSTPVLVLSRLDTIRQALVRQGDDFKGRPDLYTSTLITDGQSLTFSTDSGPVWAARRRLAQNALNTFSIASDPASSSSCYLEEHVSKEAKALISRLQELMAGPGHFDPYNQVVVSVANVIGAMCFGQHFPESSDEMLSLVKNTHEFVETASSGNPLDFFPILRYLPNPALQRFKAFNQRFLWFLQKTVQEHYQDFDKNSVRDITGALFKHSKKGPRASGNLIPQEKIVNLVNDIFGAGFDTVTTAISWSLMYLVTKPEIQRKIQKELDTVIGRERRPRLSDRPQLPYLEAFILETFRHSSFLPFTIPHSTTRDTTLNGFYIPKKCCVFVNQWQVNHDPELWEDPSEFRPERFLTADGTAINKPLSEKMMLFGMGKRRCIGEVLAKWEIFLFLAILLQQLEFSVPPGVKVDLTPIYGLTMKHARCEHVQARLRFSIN

T4 sequence (P49327 whole entry): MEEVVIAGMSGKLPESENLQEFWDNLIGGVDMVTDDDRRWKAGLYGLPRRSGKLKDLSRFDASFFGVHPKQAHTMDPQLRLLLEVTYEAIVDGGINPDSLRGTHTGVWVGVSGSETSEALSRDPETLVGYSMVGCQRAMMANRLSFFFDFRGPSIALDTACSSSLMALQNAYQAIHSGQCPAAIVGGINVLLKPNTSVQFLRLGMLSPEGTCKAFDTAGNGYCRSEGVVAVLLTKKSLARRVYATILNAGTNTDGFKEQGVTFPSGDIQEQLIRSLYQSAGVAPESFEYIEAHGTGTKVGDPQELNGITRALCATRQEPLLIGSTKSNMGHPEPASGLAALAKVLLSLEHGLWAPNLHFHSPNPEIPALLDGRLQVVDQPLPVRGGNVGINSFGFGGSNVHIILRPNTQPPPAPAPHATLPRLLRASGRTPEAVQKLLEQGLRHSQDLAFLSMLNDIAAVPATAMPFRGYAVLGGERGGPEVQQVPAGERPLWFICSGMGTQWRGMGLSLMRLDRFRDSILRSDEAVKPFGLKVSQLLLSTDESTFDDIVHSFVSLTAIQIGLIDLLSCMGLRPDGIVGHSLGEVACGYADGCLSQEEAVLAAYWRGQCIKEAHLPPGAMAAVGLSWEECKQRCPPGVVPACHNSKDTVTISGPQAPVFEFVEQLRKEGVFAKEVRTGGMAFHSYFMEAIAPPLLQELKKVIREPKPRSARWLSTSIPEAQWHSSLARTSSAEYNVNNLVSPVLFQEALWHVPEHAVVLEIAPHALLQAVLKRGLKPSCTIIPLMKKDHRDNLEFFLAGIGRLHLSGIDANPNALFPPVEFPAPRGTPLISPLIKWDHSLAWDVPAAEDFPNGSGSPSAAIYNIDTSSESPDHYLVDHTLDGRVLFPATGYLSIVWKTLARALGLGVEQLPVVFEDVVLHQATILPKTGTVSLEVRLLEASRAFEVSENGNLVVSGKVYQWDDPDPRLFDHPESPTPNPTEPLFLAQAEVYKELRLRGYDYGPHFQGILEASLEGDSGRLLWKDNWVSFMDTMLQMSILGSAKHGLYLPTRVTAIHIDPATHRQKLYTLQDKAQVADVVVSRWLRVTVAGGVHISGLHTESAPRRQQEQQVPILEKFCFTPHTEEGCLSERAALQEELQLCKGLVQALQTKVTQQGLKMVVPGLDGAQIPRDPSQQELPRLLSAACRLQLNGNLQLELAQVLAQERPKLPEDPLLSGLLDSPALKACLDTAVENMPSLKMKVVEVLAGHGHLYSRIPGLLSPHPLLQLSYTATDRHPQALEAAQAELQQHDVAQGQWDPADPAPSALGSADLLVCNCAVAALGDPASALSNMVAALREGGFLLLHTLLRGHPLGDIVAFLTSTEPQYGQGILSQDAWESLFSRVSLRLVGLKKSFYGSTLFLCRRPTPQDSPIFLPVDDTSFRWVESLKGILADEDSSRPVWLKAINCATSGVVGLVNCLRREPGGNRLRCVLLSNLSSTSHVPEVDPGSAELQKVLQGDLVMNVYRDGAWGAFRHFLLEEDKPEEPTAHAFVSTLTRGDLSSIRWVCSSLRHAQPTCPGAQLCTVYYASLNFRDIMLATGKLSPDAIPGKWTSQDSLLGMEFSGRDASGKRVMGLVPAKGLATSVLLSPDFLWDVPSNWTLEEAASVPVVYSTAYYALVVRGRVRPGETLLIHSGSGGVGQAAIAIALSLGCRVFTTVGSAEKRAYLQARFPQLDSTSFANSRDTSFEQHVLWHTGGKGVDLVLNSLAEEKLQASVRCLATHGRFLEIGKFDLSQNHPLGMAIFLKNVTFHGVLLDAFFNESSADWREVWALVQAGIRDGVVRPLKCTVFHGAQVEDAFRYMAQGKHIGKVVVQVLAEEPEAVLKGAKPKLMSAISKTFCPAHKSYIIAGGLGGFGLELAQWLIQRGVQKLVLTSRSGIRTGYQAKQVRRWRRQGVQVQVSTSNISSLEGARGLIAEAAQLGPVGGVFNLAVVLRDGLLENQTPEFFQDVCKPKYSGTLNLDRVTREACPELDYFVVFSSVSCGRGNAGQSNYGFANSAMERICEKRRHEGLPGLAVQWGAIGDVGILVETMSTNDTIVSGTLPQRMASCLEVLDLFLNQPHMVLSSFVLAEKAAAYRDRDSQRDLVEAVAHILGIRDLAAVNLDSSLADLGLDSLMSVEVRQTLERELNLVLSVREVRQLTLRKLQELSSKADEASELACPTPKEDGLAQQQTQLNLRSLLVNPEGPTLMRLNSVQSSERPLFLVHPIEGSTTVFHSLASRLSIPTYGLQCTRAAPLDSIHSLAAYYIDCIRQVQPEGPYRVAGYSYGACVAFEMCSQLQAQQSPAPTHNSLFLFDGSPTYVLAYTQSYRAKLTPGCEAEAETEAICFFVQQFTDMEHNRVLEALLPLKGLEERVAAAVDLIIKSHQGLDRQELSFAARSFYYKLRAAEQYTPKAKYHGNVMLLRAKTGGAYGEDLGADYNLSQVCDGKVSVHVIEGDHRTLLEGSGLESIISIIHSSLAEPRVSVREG
Sequence of Cytochrome P450 2C9 (P11712 whole entry): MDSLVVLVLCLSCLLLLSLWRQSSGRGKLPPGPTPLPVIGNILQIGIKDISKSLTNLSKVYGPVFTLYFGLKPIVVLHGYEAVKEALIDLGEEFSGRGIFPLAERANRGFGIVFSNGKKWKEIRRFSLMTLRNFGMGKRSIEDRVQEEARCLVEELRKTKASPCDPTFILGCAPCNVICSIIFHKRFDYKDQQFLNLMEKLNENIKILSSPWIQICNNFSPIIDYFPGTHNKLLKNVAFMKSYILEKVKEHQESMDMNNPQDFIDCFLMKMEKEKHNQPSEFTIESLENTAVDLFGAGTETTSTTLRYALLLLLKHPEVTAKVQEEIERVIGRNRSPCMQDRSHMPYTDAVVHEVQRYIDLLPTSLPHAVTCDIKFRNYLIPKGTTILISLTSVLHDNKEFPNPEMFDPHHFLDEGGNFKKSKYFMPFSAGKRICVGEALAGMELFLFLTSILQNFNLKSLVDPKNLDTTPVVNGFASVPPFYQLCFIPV
Sequence of Paired box protein Pax-8 (Q06710 whole entry): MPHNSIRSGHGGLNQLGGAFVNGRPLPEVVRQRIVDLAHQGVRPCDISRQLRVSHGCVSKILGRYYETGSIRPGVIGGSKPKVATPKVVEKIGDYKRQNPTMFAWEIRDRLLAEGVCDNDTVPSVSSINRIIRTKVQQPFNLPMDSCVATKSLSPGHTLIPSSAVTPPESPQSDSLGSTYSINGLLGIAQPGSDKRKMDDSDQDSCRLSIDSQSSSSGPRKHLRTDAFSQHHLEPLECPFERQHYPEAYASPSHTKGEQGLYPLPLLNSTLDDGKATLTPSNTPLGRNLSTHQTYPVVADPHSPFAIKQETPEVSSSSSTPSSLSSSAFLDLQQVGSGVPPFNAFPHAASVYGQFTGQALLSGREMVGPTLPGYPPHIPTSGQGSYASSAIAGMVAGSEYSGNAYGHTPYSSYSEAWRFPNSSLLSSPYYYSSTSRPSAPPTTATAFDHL
Sequence of Cytochrome P450 3A4 (P08684 whole entry): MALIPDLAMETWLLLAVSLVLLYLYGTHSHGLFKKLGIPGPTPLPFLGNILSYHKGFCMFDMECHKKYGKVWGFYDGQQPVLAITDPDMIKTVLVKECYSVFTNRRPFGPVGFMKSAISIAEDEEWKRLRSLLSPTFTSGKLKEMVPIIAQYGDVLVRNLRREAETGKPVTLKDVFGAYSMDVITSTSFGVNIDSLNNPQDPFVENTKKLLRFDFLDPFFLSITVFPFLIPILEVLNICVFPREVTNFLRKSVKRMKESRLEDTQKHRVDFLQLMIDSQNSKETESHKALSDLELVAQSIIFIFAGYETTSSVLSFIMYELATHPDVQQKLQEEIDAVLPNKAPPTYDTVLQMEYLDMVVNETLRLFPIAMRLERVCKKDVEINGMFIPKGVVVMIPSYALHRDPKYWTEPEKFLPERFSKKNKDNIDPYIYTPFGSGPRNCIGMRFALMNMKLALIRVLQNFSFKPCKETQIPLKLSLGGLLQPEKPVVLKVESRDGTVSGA
Sequence of Cytochrome P450 2C19 (P33261 whole entry): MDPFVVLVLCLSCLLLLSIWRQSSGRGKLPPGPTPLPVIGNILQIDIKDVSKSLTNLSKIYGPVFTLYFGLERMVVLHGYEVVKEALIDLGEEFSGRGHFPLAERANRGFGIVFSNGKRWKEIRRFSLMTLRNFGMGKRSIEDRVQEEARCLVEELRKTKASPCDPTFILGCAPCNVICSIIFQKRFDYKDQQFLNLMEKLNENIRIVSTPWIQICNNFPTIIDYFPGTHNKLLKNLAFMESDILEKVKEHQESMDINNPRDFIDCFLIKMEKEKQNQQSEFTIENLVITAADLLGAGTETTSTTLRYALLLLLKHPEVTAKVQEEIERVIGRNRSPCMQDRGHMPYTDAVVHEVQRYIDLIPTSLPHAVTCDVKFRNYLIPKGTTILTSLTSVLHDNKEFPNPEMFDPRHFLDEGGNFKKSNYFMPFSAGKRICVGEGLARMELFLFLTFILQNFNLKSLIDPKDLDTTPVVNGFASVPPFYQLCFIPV

Compound: Cc1cccc(OCc2nc(C#N)c(NCc3ccc4c(c3)OCO4)o2)c1
- IC50 [1]: 6.8 µM (not active)

Compound: COc1ccccc1Nc1nc(Cl)c(C=O)s1
- IC50 [1]: > 50 µM (not active)

Compound: CN1CCCN(S(=O)(=O)c2ccc3c(c2)OCCO3)CC1
- AC50 [2]: 25.1 µM (inconclusive)
- AC50 [3]: inconclusive

Compound: N#Cc1cccc(-c2ccc3c(c2)[C@@H]2[C@@H](CCN2S(=O)(=O)c2ccc(F)cc2)[C@@H](CO)N3)c1
- AC50 [4]: 6.61 µM (active)

Compound: CC(C)C1OC(NC(=O)Nc2ccc(Cl)c(Cl)c2)=NC1=O (centres undefined)
- EC50 [5]: 2.51 µM (active)
- EC50 [6]: > 150 µM (not active)
- EC50 [7]: 28.7 µM (active)
- CC50 [8]: > 40 µM (active)
- IC50 [9]: 18.9 µM (active)

Compound: CCCCNC(=O)Cc1ccc(C)cc1
- CC50 [8]: > 40 µM (active)

Compound: COC(=O)C1CCN(C(=O)COC(=O)c2cc([N+](=O)[O-])ccc2N2CCOCC2)CC1
- IC50 [10]: > 47.1 µM (inactive)
- EC50 [11]: > 53 µM (inactive)
- IC50 [12]: 5.73 µM (active)
- IC50 [13]: 3.96 µM (active)

Compound: Cc1cccc(CNc2ccnc(-c3ccccc3CN(C)C)n2)c1
- AC50 [14]: 3.98 µM (inconclusive)
- AC50 [3]: inconclusive

Compound: Cc1cc2ncn(-c3ncnc4sc5c(c34)CCC(C)C5)c2cc1C (centres undefined)
- IC50 [1]: 19.2 µM (not active)

Compound: CN1/C(=C\C(=O)CSc2nnc(NCc3ccccc3)s2)C(C)(C)c2ccccc21
- IC50 [1]: 4.01 µM (not active)
- IC50 [15]: > 100 µM (inactive)

Compound: CCc1cccc2c(C=C(C#N)C#N)cn(CC(=O)N3CCCC3)c12
- AC50 [3]: inconclusive

Compound: Cc1cc(C)n(C(=O)c2cc3ccccc3c(=O)o2)n1
- AC50 [3]: inconclusive

Compound: C[C@H]1CCCCO[C@@H](CN(C)S(=O)(=O)c2cccs2)[C@@H](C)CN([C@@H](C)CO)C(=O)c2cc(NC(=O)NC3CCCCC3)ccc2O1
- AC50 [4]: 4.79 µM (active)

Compound: O=C(Nc1ccccc1Cl)c1ccccc1Cl
- AC50 [3]: inconclusive

Compound: C[C@@H]1CCCCO[C@@H](CN(C)C(=O)C2CCCCC2)[C@H](C)CN([C@H](C)CO)C(=O)c2cc(NC(=O)Nc3ccc(F)cc3)ccc2O1
- AC50 [4]: 8.22 µM (active)

Compound: Cc1ccc(S(=O)(=O)N(C)C)cc1NC(S)=NC(C)CCCC(C)C (centres undefined)
- EC50 [16]: > 260 µM (inactive)
- IC50 [12]: 12.3 µM (active)
- IC50 [13]: 9.82 µM (active)

Compound: O=C(CNC(=O)c1cccs1)NCC(=O)OCc1ccc(Cl)cc1Cl
- AC50 [17]: 10 µM (inconclusive)
- AC50 [3]: inconclusive

Compound: CCOC(=O)c1cnc(-n2nc(C)cc2C)nc1Nc1ccc(OC)cc1
- EC50 [5]: 6.33 µM (active)
- EC50 [6]: > 150 µM (not active)
- IC50 [1]: < 0.4 µM (not active)
- EC50 [7]: > 150 µM (not active)

Compound: C/C(=N\NC(=O)COc1ccc(C)cc1Br)c1cc([N+](=O)[O-])cs1
- CC50 [8]: > 40 µM (active)
- IC50 [9]: 34.1 µM (active)

Compound: Cc1ccc(NC(=O)c2cccc(N(C)C)c2)cc1NC(=O)c1ccc(O)cc1
- AC50 [3]: inconclusive

Compound: C[C@H](CO)N1C[C@H](C)[C@H](CN(C)Cc2ccc(Cl)c(Cl)c2)OCCCC[C@H](C)Oc2ccc(NC(=O)Nc3ccccc3)cc2C1=O
- AC50 [4]: 11.9 µM (active)

Compound: c1ccc(Oc2ccc(-c3ccnc4ncnn34)cc2)cc1
- IC50 [1]: 11.5 µM (active)
